Values joined by “and” are separate entries in the source; they are usually repeats but may differ in a detail not shown here. Equal entries are not always repeated.
Tests used:
Adenosine receptor A2b [1] = biological target: T1, Adenosine receptor A2b (Homo sapiens, UniProt P29275); assay: Binding affinity of compound for displacement of specific [3H]- DPCPX binding at human A2B receptors expressed in HEK293 cells; type: cell-based
T1 sequence (P29275 whole entry): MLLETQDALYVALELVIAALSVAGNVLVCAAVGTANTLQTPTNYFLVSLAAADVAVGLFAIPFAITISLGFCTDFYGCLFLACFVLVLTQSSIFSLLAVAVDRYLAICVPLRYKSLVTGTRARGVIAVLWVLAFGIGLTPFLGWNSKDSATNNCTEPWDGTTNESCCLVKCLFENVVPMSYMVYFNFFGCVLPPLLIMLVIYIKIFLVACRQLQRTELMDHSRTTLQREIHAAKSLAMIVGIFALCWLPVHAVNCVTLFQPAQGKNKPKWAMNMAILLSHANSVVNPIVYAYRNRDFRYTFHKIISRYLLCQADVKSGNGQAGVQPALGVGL

Adenosine receptor A2a = Adenosine receptor A2a (Homo sapiens, UniProt P29274); assay: Binding affinity of compound for displacement of specific [3H]ZM-241385 binding at human adenosine A2A receptor expressed in CHO cells; type: cell-based
Adenosine receptor A3 = biological target: T2, Adenosine receptor A3 (Homo sapiens, UniProt P0DMS8); assay: Binding affinity of compound for displacement of specific [3H]MRE3008-F20 binding at human A3 receptors expressed in CHO cells; type: cell-based
T2 sequence (P0DMS8 whole entry): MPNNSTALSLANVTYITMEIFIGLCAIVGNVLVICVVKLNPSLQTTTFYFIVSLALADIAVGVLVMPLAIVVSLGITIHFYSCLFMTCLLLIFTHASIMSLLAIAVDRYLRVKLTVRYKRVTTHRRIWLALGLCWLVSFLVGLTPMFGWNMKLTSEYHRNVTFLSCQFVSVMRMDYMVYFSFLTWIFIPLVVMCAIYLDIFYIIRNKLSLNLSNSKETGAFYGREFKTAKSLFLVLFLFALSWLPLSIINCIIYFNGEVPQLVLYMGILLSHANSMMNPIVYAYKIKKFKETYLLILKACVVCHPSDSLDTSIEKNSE

Adenosine receptor A1 = biological target: T3, Adenosine receptor A1 (Homo sapiens, UniProt P30542); assay: Displacement of specific [3H]DPCPX binding at human adenosine A1 receptor expressed in CHO cells; type: cell-based
T3 sequence (P30542 whole entry): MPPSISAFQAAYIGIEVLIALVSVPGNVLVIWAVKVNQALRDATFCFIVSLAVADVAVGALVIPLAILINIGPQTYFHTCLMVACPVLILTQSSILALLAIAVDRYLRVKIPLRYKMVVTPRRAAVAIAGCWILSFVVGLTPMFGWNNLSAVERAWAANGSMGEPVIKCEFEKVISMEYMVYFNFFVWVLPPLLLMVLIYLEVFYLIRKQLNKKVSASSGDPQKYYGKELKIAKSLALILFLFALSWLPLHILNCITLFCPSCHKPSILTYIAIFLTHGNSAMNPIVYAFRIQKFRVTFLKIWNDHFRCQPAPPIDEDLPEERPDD

Adenosine receptor A2b [2] = biological target: T1, Adenosine receptor A2b; assay: Inhibitory activity against cAMP production in CHO cells transfected with human A2B adenosine receptor; type: functional, cell-based
Adenosine receptor A2b [3] = biological target: T1, Adenosine receptor A2b; assay: Binding affinity of compound for displacement of [3H]DPCPX binding in HEK293 membranes expressing human A2B adenosine receptors

Chain of Adenosine receptor A2a (P29274 whole entry): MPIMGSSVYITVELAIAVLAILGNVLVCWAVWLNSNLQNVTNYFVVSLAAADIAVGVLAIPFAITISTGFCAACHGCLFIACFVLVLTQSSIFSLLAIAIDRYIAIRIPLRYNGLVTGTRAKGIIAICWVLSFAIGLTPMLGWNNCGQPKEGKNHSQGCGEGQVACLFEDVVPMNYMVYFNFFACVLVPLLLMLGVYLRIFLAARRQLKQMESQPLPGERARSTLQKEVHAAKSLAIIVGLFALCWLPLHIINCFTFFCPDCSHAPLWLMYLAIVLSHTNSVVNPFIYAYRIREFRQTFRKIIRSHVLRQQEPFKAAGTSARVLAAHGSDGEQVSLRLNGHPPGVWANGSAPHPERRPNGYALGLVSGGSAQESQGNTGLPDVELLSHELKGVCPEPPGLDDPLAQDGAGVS

Structure (SMILES) | Ki (Adenosine receptor A2b [1]) | Ki (Adenosine receptor A2a) | Ki (Adenosine receptor A3) | Ki (Adenosine receptor A1) | IC50 (Adenosine receptor A2b [2]) | Ki (Adenosine receptor A2b [3])
CCCn1c(=O)c2nc(-c3ccc(N)cc3)[nH]c2n(CCC)c1=O | 9 nM | > 1000 nM | > 1000 nM | 65 nM | – | –
CC(C)Cn1c(=O)c2nc(-c3cc(OCC(=O)Nc4ccc(F)cc4)nn3C)[nH]c2n(CC(C)C)c1=O | – | > 1000 nM | > 1000 nM | – | – | –
Cn1nc(NC(=O)Cc2ccccc2)cc1-c1nc2c([nH]1)c(=O)n(C)c(=O)n2C | – | – | – | > 1000 nM | – | –
CCCn1c(=O)c2nc(-c3ccc(NC(=O)Nc4cccc(Cl)c4)cc3)[nH]c2n(CCC)c1=O | 110 nM | > 1000 nM | > 1000 nM | 1360 nM | – | –
CCCn1c(=O)c2[nH]c(-c3cc(NC(=O)Cc4cc(OC)c(OC)c(OC)c4)nn3C)nc2n(CCC)c1=O | > 1000 nM | > 1000 nM | > 1000 nM | > 1000 nM | – | –
CCCn1c(=O)c2[nH]c(-c3cc(NC(=O)Cc4ccc(O)cc4)nn3C)nc2n(CCC)c1=O | – | – | – | > 1000 nM | – | –
CCCn1c(=O)c2[nH]c(-c3cc(NC(=O)Cc4cccc(F)c4)nn3C)nc2n(CCC)c1=O | – | – | – | – | 160 nM | 50 nM
CCCn1c(=O)c2[nH]c(-c3cc(NC(=O)[C@@H](C)c4ccccc4)nn3C)nc2n(CCC)c1=O | – | – | – | > 1000 nM | – | –
CCCn1c(=O)c2[nH]c(-c3cc(OCC(=O)Nc4ccc(Cl)c(Cl)c4)nn3C)nc2n(CCC)c1=O | – | – | – | – | 60 nM | 16 nM
CCCn1c(=O)c2c(nc(-c3ccc(N)cc3)n2C)n(CCC)c1=O | 516 nM | > 1000 nM | > 1000 nM | > 1000 nM | – | –
CCCn1c(=O)c2[nH]c(-c3cc(NC(=O)Cc4ccc(F)c(F)c4)nn3C)nc2n(CCC)c1=O | 78 nM | – | – | – | – | –
CCCn1c(=O)c2[nH]c(-c3cc(NC(=O)CCC(=O)O)nn3C)nc2n(CCC)c1=O | – | – | – | > 1000 nM | – | –
CCCn1c(=O)c2[nH]c(-c3cc(OCC(=O)Nc4ccc(OC)c(OC)c4)nn3C)nc2n(CCC)c1=O | – | – | – | > 1000 nM | 46 nM | 12 nM
CCCn1c(=O)c2[nH]c(-c3cc(OCC(=O)N4CCN(c5ccccc5)CC4)nn3C)nc2n(CCC)c1=O | 12 nM | – | – | 260 nM | 70 nM and 65 nM | 12 nM and 15 nM
CCCn1c(=O)c2[nH]c(-c3cc(OCC(=O)Nc4ccc(C)c(C)c4)nn3C)nc2n(CCC)c1=O | – | – | – | – | 40 nM | 10 nM
CCCn1c(=O)c2[nH]c(-c3cc(OCC(=O)Nc4ccc(C)cc4)nn3C)nc2n(CCC)c1=O | – | – | – | – | 75 nM | 19 nM
CCCn1c(=O)c2[nH]c(-c3cc(N)n(C)n3)nc2n(CCC)c1=O | – | > 1000 nM | > 1000 nM | – | – | –
CCCn1c(=O)c2[nH]c(-c3cc(OCC(=O)N4CCN(c5ccc(F)cc5)CC4)nn3C)nc2n(CCC)c1=O | – | – | – | > 1000 nM | – | –
CCCn1c(=O)c2[nH]c(-c3cc(OCC(=O)Nc4ccc(N5CCOCC5)cc4)nn3C)nc2n(CCC)c1=O | – | – | – | > 1000 nM | – | –
CCCn1c(=O)c2[nH]c(-c3cc(NC(=O)Cc4ccc(CC(C)C)cc4)nn3C)nc2n(CCC)c1=O | – | – | – | > 1000 nM | – | –
CCCn1c(=O)c2[nH]c(-c3cc(NC(=O)Cc4ccc(OC)c(OC)c4)nn3C)nc2n(CCC)c1=O | – | > 1000 nM | – | > 1000 nM | – | 38 nM
CCCn1c(=O)c2[nH]c(-c3cc(NC(=O)Cc4ccc(O)c(OC)c4)nn3C)nc2n(CCC)c1=O | – | > 1000 nM | – | > 1000 nM | – | –
CCCn1c(=O)c2[nH]c(-c3cc(OCC(=O)Nc4ccc(C(=O)O)cc4)nn3C)nc2n(CCC)c1=O | – | – | – | > 1000 nM | 115 nM | 36 nM
CCCn1c(=O)c2[nH]c(-c3ccc(NC(=O)Cc4ccc(OC)c(OC)c4)cc3)nc2n(CCC)c1=O | 95 nM | > 1000 nM | > 1000 nM | 1730 nM | – | –
CCCn1c(=O)c2[nH]c(-c3cc(OCC(=O)Nc4ccc(C)cn4)nn3C)nc2n(CCC)c1=O | 1010 nM | > 1000 nM | > 1000 nM | > 1000 nM | – | –
CCCn1c(=O)c2[nH]c(-c3ccc(OCC(=O)Nc4ccc(I)cc4)nc3)nc2n(CCC)c1=O | – | – | – | > 1000 nM | 477 nM | 108 nM
CCCn1c(=O)c2[nH]c(-c3cc(NC(=O)Cc4cccc(OC)c4)nn3C)nc2n(CCC)c1=O | – | – | – | > 1000 nM | – | –

Reference: ChEMBL document CHEMBL1148292 (J Med Chem, 2004)
